# Source: patent US9181172B2, “Rhein conjugates, preparation method thereof and their uses in producing medicines for treating diabetic nephrosis, intestinal adhesion and osteoarthritis” (priority 2005, dated 2015)
# What was measured:
# [1] = Comparison of metal salts or conjugates hydro-acupuncture (water-carrier) preparation: pH value and clarity; assay type: physicochemical; settings: 2.0 mg/ml in water, as dissolved
# Protocol: Proper amount of different rhein or rhein-containing effective part metal salts or conjugates were put into a 10 ml volumetric flask, added with water, shaken and dissolved for constant volume, and then a water-carrier preparation was obtained. Rhein or rhein-containing effective part sodium salts or sylvan preparation are adjusted to the original pH with diluted hydrochloric acid and the results were shown in Table 4.
# rats = assay: Intestinal adhesion in rats; assay type: in vivo; settings: 10 mg/kg once every two days, 7th day
# Protocol: Rats were fasted for 12 h and models were built according to the methods in the literature [Xu Shuyun, Methodology in Pharmacological Experiment (the 3rd version): 1335]. The rats were randomly divided into five groups, namely, model control group, dexamethasone group, rhein sodium group, rhein glucosamine large dose group and low dose group. Each group included 12 rats. […] The rats of the model group were administered with the same volume of NS, while the rats of the positive control group were administered with dexamethasone, administered once every two days, dose: 10 mg/kg. The administration volume was the same as the treatment group. The rats were killed on the 7th day and carried on laparotomy. Adhesion degree was classified and scored respectively. The classification and score of the observed index-adhesion degree can refer to the five-grade classification method prepared by Nair, and determine the classification standard, see Schedule 13. Intestinal adhesion classification adopts Ridit analysis. The test results are as follows (Table 14): […]
# mice [2] = assay: Immune function in mice (clearance index, phagocytic index); assay type: in vivo; settings: ig 20 mg/kg, 3 days
# Protocol: Fifty Kunming mice, half male and half female, weighing 18-22 g each were selected and randomly divided into five groups, namely, model control group, cyclophosphamide group, rhein sodium group, rhein glucosamine large dose group and small dose group, 10 mice for each group. The mice were administered with medicines by intragastric administration, 0.2 ml/10 g body weight, once every day and administered for 3 days in succession. After the mice were administered with medicines, 30 minutes later, test was carried on according to the method in the literature [Xu Shuyun, Methodology in Pharmacological Experiment (the 3rd version): 934]. The […] and corrected phagocytic index α were calculated, and t-test was conducted for statistical analysis.
# mice [3] = assay: Intestinal propulsion in mice; assay type: in vivo; settings: dosage 9 mg/kg, intravenous injection
# Protocol: Fifty mice, male, weighting from 18 to 22 g, were randomly divided into five groups, namely, model control group, domperidone group, rhein sodium group, rhein glucosamine large dose group and low dose group.
# Each group has 10 mice respectively. The mice were fasted, but water was not prohibited, and then administered with medicines by intravenous injection. After that, tests were carried on immediately according to the methods in the literature[Xu Shuyun, Methodology in Pharmacological Experiment (the 3rd version): 1313]. The intestinal propulsive rates were calculated, and t test was used for the intergroup comparison.
# mice [4] = assay: Xylene-induced swelling of auricle in mice; assay type: in vivo; settings: ig 200 mg/kg, 3 days
# Protocol: Fifty male Kunming mice were selected, weighing 18-22 g each, and randomly divided into five groups, namely, model control group, aspirin group, rhein sodium group, rhein glucosamine large dose group and low dose groups. Each group had 10 mice respectively. The mice were administered with medicines by intragastric administration every day, for 0.2 ml/10 g body weight. The mice of the model control group were administered with equal volume of physiological saline, once every day, continuously administration for 3 days. After 60 minutes of the final administration, carried on test according to the method in the literature [Xu Shuyun, Methodology in Pharmacological Experiment (the 3rd version): 911]. The sweeling degree of auricle was calculated and statistical analysis was conducted.
# mice [5] = assay: Acetic acid-induced writhing response in mice; assay type: in vivo; settings: ig 200 mg/kg, 12 days
# Protocol: Fifty Kunming mice, half male and half female, weighing 18-22 g each, were selected and randomly divided into five groups, namely, model control group, aspirin group, rhein sodium group, rhein glucosamine large dose group and small dose group, 10 mice for each group. The mice were administered with medicine by intragastric administration every day, 0.2 ml/10 g body weight, once every day, and administered for 12 days in succession. After the final administration of medicines, 30 minutes later, test was carried on according to the methods in the literature [Xu Shuyun, Methodology in Pharmacological Experiment (the 1st version): 882]. The inhibiting rate for writhing response was calculated.
# obese hyperglycemia mice = assay: Body weight and blood glucose of obese hyperglycemia mice; assay type: in vivo
# Protocol: 9-week-old obese mice of hyperglycemia were randomly divided into: rhein sodium group, non-treatment group, rosiglitazone group, rhein lysine high-dose group and low-dose group, each group has 6 mice. Kunming mice of the same age were used as the control group, which were fed by conventional feedstuff with free food and water feeding. Rhein lysine conjugates [the dose is 180 mg/kg (0.418 mmol/kg) and 90 mg/kg (0.209 mmol/kg) for intragastric infusion, prepared with distilled water], dose of the rhein sodium group is 130 mg/kg (0.424 mmol/kg), the mixture was dissolved with distilled water, intragastric administration; rosiglitazone group (the dose is 4 mg/kg), the mixture was dissolved with distilled water, intragastric administration, and the rats of the other two groups were administered with the same volume of distilled water, once a day, 12 weeks of administration in succession. The animals' body weight and blood sugar were measured regularly, and statistical analysis was conducted.
# diabetic rats = assay: Diabetic nephrosis of obese diabetic rats (high-fat high-sugar diet plus STZ); assay type: in vivo; settings: for Urine protein / Kidney weight index (double kidney weight/body weight × 10^4) / Serum total cholesterol / Serum triacylglycerol / Steady blood sugar level / Steady insulin level / Weight / blood sugar: six months, ig 90 mg/kg
# Protocol: Animal model of diabetic rats: after one month of high-fat high-sugar diet, the rats (about 180 g) were injected by sub-pathogenic dose (25 mg/kg) of streptozotocin (STZ) to induce the occurrence of diabetes. The model has the characteristics of moderate hyperglycemia, hyperlipidemia and insulin resistance as well as pathological changes of typical diabetic nephrosis.
# • 1. Conventional feedstuff control group: distilled water. • 2. Diabetes model group: distilled water. • 3. Rhein lysine diabetes treatment group: a month after STZ injection, rhein lysine complex [prepared with distilled water, intragastric infusion for rats according to 90 mg/kg (0.209 mmol/kg) dose] was administered referred to treatment group 1. • 4. Rhein sodium diabetes treatment group: a month after STZ injection, rhein sodium [prepared with distilled water, intragastric infusion for rats, according to 65 mg/kg (0.212 mmol/kg) dose] was administered, referred to treatment group 2. • 5. Rhein lysine diabetes prevention group: one week after STZ injection, rhein lysine conjugates were administered [prepared with distilled water and intragastric infusion for rats, according to 90 mg/kg (0.209 mmol/kg) dose], referred to prevention group 1. • 6. Rhein sodium diabetes prevention group: one week after STZ injection, rhein sodium were administered [prepared with distilled water and intragastric infusion for rats, according to 65 mg/kg (0.212 mmol/kg ) dose], referred to prevention group 2.
# [6] = system: obese rats of high-fat and high-sugar diet; assay: Body weight of obese rats of high-fat and high-sugar diet; assay type: in vivo
# Description: Group A: conventional diet, 4 weeks later, started to carry on intragastric administration, and the same volume of distilled water as the control, once daily, three weeks in succession.
# Group B: high-fat high-sugar diet, 4 weeks later, started to carry on intragastric administration, and the same volume of distilled water as the model control, once daily, three weeks in succession.
# Group C: high-fat high-sugar diet, 4 weeks later, started to carry on intragastric administration of rhein lysine conjugates [dose: 90 mg/kg (0.209 mmol/kg), prepared by distilled water], once daily, three weeks in succession.
# Group D: high-fat high-sugar diet, 4 weeks later, started to carry on intragastric administration of rhein lysine conjugates [dose: 45 mg/kg (0.105 mmol/kg), prepared by distilled water], once daily, three weeks in succession.
# Group E: high-fat high-sugar diet, 4 weeks later, started to carry on intragastric administration of rhein sodium [dose: 65 mg/kg (0.212 mmol/kg), prepared by distilled water], once daily, three weeks in succession.
# [7] = baseline of group given ig 4 mg/kg once a day
# [8] = prevention group and treatment group, six months after administration
# [9] = baseline of high-dose group, ig 180 mg/kg once a day
# [10] = baseline of low-dose group, ig 90 mg/kg once a day
smiles,measurement,setting,value
"CNC[C@H](O)[C@@H](O)[C@H](O)[C@H](O)CO.O=C(O)c1cc(O)c2c(c1)C(=O)c1cccc(O)c1C2=O [rhein meglumine conjugate, Rhein Meglumine Conjugate]",PH value,[1],6-7
same,clarity,[1],clear
C[C@@H]1C[C@H]2[C@@H]3CCC4=CC(=O)C=C[C@]4(C)[C@@]3(F)[C@@H](O)C[C@]2(C)[C@@]1(O)C(=O)CO [dexamethasone],Rating of adhesion degree 0,rats; number of 12 rats with completely no adhesion,1
same,Rating of adhesion degree III,rats; number of 12 rats with more than two adhering zones,1
same,Rating of adhesion degree I,rats; number of 12 rats with one adhering zone,2
same,Rating of adhesion degree IV,rats; number of 12 rats with organs adhering to abdominal wall directly,0
same,Rating of adhesion degree II,rats; number of 12 rats with two adhering zones,8
O=P1(N(CCCl)CCCl)NCCCO1 (centres unmarked) [cyclophosphamide],Clearance index (k),mice [2],0.0192 ± 0.0102
same,Phagocytic index (α),mice [2],4.0208 ± 0.6698
O=c1[nH]c2ccccc2n1CCCN1CCC(n2c(=O)[nH]c3cc(Cl)ccc32)CC1 [domperidone],Propulsive rate,mice [3],55.42 ± 9.6 %
CC(=O)Oc1ccccc1C(=O)O [aspirin],inhibition rate,mice [4],48.9%
same,swelling degree of auricle,mice [4],9.1 ± 1.8 mg
same,Inhibiting rate,mice [5],65.6%
same,Times of writhing,mice [5],11.1 ± 6.3 per/20 min
"C[N+](C)(C)CC(O)CC(=O)[O-].O=C(O)c1cc(O)c2c(c1)C(=O)c1cccc(O)c1C2=O [rhein carnitine conjugate, Rhein Carnitine Conjugate]",PH value,[1],6-7
same,clarity,[1],clear
CN(CCOc1ccc(CC2SC(=O)NC2=O)cc1)c1ccccn1 (centres unmarked) [Rosiglitazone],Blood glucose prior to administration,obese hyperglycemia mice; [7],29.3 ± 4.7 mmol/L
same,Body weight prior to administration,obese hyperglycemia mice; [7],29.3 ± 1.7 g
same,Blood glucose 6 w after administration,obese hyperglycemia mice; ig 4 mg/kg once a day,31.1 ± 4.9 mmol/L
same,Blood glucose 9 w after administration,obese hyperglycemia mice; ig 4 mg/kg once a day,30.5 ± 4.5 mmol/L
same,Blood glucose 12 w after administration,obese hyperglycemia mice; ig 4 mg/kg once a day,27.9 ± 3.8 mmol/L
same,Body weight 6 w after administration,obese hyperglycemia mice; ig 4 mg/kg once a day,42.1 ± 1.9 g
same,Body weight 9 w after administration,obese hyperglycemia mice; ig 4 mg/kg once a day,48.2 ± 1.5 g
same,Body weight 12 w after administration,obese hyperglycemia mice; ig 4 mg/kg once a day,50.1 ± 1.8 g
O=C([O-])c1cc(O)c2c(c1)C(=O)c1cccc(O)c1C2=O.[K+] [Rhein sylvin],PH value,[1],9-10
same,clarity,[1],clear
"NCCCCC(N)C(=O)O.O=C(O)c1cc(O)c2c(c1)C(=O)c1cccc(O)c1C2=O [Rhein lysine conjugate, Rhein Lysine Conjugate]",kidney weight and kidney weight index compared with the model group,diabetic rats; [8],significantly lower
same,serum cholesterol and triglyceride compared with the model group,diabetic rats; [8],significantly lower
same,urine protein content compared with the model group,diabetic rats; [8],significantly lower
same,blood sugar level compared with the model group,"diabetic rats; prevention group, six months after administration",significantly lower
same,Urine protein,diabetic rats; preventive administration from one week after STZ,10.23 ± 3.34 mg/24 h
same,Kidney weight index (double kidney weight/body weight × 10^4),diabetic rats; preventive administration,5.26 ± 0.74
same,Serum total cholesterol,diabetic rats; preventive administration,2.78 ± 0.21 mM
same,Serum triacylglycerol,diabetic rats; preventive administration,1.56 ± 0.32
same,Steady blood sugar level,diabetic rats; preventive administration,6.2 ± 0.4 mmol/L
same,Steady insulin level,diabetic rats; preventive administration,71.6 ± 3.5 uU/ml
same,Weight,diabetic rats; preventive administration,248 ± 13 g
same,blood sugar,diabetic rats; preventive administration,14.98 ± 5.9 mmol/L
same,Urine protein,diabetic rats; treatment from a month after STZ,15.12 ± 5.68 mg/24 h
same,blood sugar level compared with the model group,"diabetic rats; treatment group, six months after administration",no significant difference
same,Kidney weight index (double kidney weight/body weight × 10^4),diabetic rats; treatment,6.7 ± 0.78
same,Serum total cholesterol,diabetic rats; treatment,3.56 ± 0.71 mM
same,Serum triacylglycerol,diabetic rats; treatment,1.63 ± 0.39
same,Steady blood sugar level,diabetic rats; treatment,5.6 ± 0.9 mmol/L
same,Steady insulin level,diabetic rats; treatment,80 ± 3.5 uU/ml
same,Weight,diabetic rats; treatment,228 ± 15 g
same,blood sugar,diabetic rats; treatment,17.4 ± 5.6 mmol/L
same,weight and blood sugar compared with the non-treatment group,obese hyperglycemia mice; 9 weeks after administration,extremely significant difference
same,Blood glucose prior to administration,obese hyperglycemia mice; [9],29.2 ± 3.6 mmol/L
same,Body weight prior to administration,obese hyperglycemia mice; [9],29.2 ± 1.6 g
same,Blood glucose prior to administration,obese hyperglycemia mice; [10],28.7 ± 5.3 mmol/L
same,Body weight prior to administration,obese hyperglycemia mice; [10],28.8 ± 1.6 g
same,Blood glucose 6 w after administration,obese hyperglycemia mice; ig 90 mg/kg once a day,31.4 ± 4.9 mmol/L
same,Blood glucose 9 w after administration,obese hyperglycemia mice; ig 90 mg/kg once a day,33.7 ± 5.6 mmol/L
same,Blood glucose 12 w after administration,obese hyperglycemia mice; ig 90 mg/kg once a day,30.4 ± 4.2 mmol/L
same,Body weight 6 w after administration,obese hyperglycemia mice; ig 90 mg/kg once a day,35.7 ± 1.7 g
same,Body weight 9 w after administration,obese hyperglycemia mice; ig 90 mg/kg once a day,39.3 ± 1.2 g
same,Body weight 12 w after administration,obese hyperglycemia mice; ig 90 mg/kg once a day,41.3 ± 1.6 g
same,Blood glucose 6 w after administration,obese hyperglycemia mice; ig 180 mg/kg once a day,30.9 ± 4.2 mmol/L
same,Blood glucose 9 w after administration,obese hyperglycemia mice; ig 180 mg/kg once a day,30.2 ± 5.3 mmol/L
same,Blood glucose 12 w after administration,obese hyperglycemia mice; ig 180 mg/kg once a day,28.1 ± 5.4 mmol/L
same,Body weight 6 w after administration,obese hyperglycemia mice; ig 180 mg/kg once a day,34.9 ± 1.6 g
same,Body weight 9 w after administration,obese hyperglycemia mice; ig 180 mg/kg once a day,38.2 ± 1.3 g
same,Body weight 12 w after administration,obese hyperglycemia mice; ig 180 mg/kg once a day,40.1 ± 1.4 g
same,The body weight increased 7 weeks after high-sugar high-fat diet,"[6]; Group C, after three weeks ig 90 mg/kg once daily",16.8 ± 4.8 g
same,The body weight increased 4 weeks after high-sugar high-fat diet,"[6]; Group C, before start of ig 90 mg/kg",15.3 ± 3.8 g
same,The body weight increased 7 weeks after high-sugar high-fat diet,"[6]; Group D, after three weeks ig 45 mg/kg once daily",17.7 ± 4.6 g
same,The body weight increased 4 weeks after high-sugar high-fat diet,"[6]; Group D, before start of ig 45 mg/kg",16.1 ± 4.2 g
